# Data as given in US6632429B1, “Methods for treating pervasive development disorders” (priority 1999, dated 2003).
# No end group written: not given here.
# Experiments:
# [1] = tested on: autistic children with abnormal fecal chymotrypsin levels; assay: Experiment 2: fecal chymotrypsin levels during 6 months of secretin administration; assay type: in vivo, human (children); conditions: of 37 children, 6 months post-secretin administration
# Description: (§1) In this experiment, 16 children diagnosed as having autism were administered the following Fecal Chymotrypsin Test in accordance with an embodiment of the invention. First, approximately 2 grams of stool were collected from each child and placed in a sterile container (although it is to be understood that any quantity of stool may be collected, as 2 grams of stool is not a required amount). Each stool sample was then analyzed using, e.g., an enzymatic photospectrometry analysis as is known by those skilled in the art, to determine the level of fecal chymotrypsin in the stool. Although the enzymatic photospectrophotometry process is preferred, any suitable conventional method may be used for measuring the fecal chymotrypsin levels. The measured chymotrypsin levels of the 16 autistic children are illustrated in FIG. 13.
# After determining the chymotrypsin levels of the stools, each of these levels were compared with threshold chymotrypsin levels to determine if the child was likely to benefit from secretin administration. By way of example, with the fecal chymotrypsin tests of the stool samples being performed at 30° C. normal levels of chymotrypsin are deemed to lie above 8.4 U/gram, whereas pathologically abnormal levels are deemed to lie below 4.2 U/gram. In addition, chymotrypsin levels between 8.4 U/gram and 4.2 U/gram are considered equivocal, and further testing of the individual's fecal chymotrypsin levels over a period of time should be performed.
# A preferred secretin infusion process includes the initial step of prepping an arm of the candidate child with an IV injection of saline. A test dose of 1 U of Secretin-Ferring is then administered to the child. […]
# In this experiment, 37 autistic children with abnormal fecal chymotrypsin levels were administered secretin over the course of 6 months using the secretin infusion process described above. Their fecal chymotrypsin (FC) levels were measured weekly using the fecal chymotrypsin test described above.
# [2] = tested on: children diagnosed with Autism; conditions: secretin given as diagnostic procedure during upper gastrointestinal endoscopy (Horvath et al. 1998); cited from earlier work
# [3] = tested on: children diagnosed as having autism; assay: Experiment 1: Fecal Chymotrypsin Test after secretin infusion; assay type: in vivo, human (children); conditions: each of 16 autistic children; approximately one week after first secretin infusion, 1 U/kg IV
# Description: as §1
# After determining the chymotrypsin levels of the stools, each of these levels were compared with threshold chymotrypsin levels to determine if the child was likely to benefit from secretin administration. […]
# The results of Experiment 1 are illustrated in FIGS. 1-14. For instance, approximately one week after the first secretin infusion, the fecal chymotrypsin level of each of the 16 autistic children was measured again. […]
# [4] = tested on: children diagnosed as having autism; assay: Experiment 1: CARS (Childhood Autism Rating Scale) test pre/post secretin; assay type: in vivo, human (children); conditions: 16 autistic children
# Description: Upon determining that a given child was likely to benefit from secretin administration based on the results of the fecal chymotrypsin test, the child was administered a CARS (Childhood Autism Rating Scale) test prior to being scheduled for secretin infusion.
# For each of the 16 autistic children tested, a preferred secretin infusion process according to the present invention was performed involving the administering of 1 U/kg of body weight of Secretin-Ferring for a period of nine months at intervals of approximately 6 weeks. In addition, another CARS test was administered to each of the 16 autistic children 3 weeks post secretin administration to determine if their autism had changed post infusion.
# A preferred secretin infusion process includes the initial step of prepping an arm of the candidate child with an IV injection of saline. A test dose of 1 U of Secretin-Ferring is then administered to the child. Approximately one minute after infusion, the child is examined for signs of allergic reaction including rash, increased heart rate, and increase of blood pressure. […] Subsequently, each child receives a 1U/kg of body weight infusion of Secretin-Ferring approximately every 6 weeks for 9 months. It is to be understood that any commercially available form of secretin may be used. […]
substance,measurement,setting,value
"secretin (HSDGTFTSELSRLRDSARLQRLLQGLV; ends and bridges not checked; UniProt P63298 33-59, looked up) [gastrointestinal peptide hormone]",# Autistic Children w/Equivocal FC levels,[1]; pre-secretin 0,2
same,# Autistic Children w/normal FC levels,[1]; pre-secretin 0,34
same,# Autistic Children w/Abnormal FC levels,[1]; pre-secretin 37,1
same,symptoms associated with Autism after secretin administration,[2],ameliorating the symptoms
same,fecal chymotrypsin level post-secretin administration compared with pre-secretin,[3],increased
same,CARS component scores (all except fear),[4]; 3 weeks post infusion,improvement
same,"CARS scores, overall change",[4]; approximately 3 weeks after first secretin administration vs pre-secretin,overall decrease
